{"source": "patent US5922689A", "about": "“Cisplatin analogs for cancer treatment” (Unitech Pharmaceuticals, Inc., priority 1997, dated 1999)", "key": {"[1]": {"tested_on": "MCF-7 breast cancer cells", "test": "Side-by-side growth assay versus cisplatin, MCF-7, Example 6", "format": "cell-based, human", "settings": "for MCF-7 cell count: untreated 2.96 × 10^6", "protocol": "(§1) Growth Assay: plate individual cells (human breast cancer cells MCF-7, and MDA-MB-231) at 10^4 cells/mL, 1-mL/well in MEM-10 (MEM+10% FBS, where FBS is fetal Bovine Serum) with 1/100 Penicillin/Strep. Add 1/100 volume of the above Test Solution (10 μL/mL) to triplicate wells. MCF-7 also requires 10 μg/mL insulin; MDA-MB-231 requires no insulin. Incubate cell cultures at 37° C. for 6 days and count the number of cells.\n(§2) side-by-side comparison of cis-[Pt(NH3)2 PtCl(Guanosine)]Cl and cisplatin (performed by Biotherapies Incorporated of Ann Arbor, Mich.)\n(§3) Test Solutions: Test solutions were prepared in the same manner as in Example 5, except, additional test solution was prepared employing cisplatin.\n(§4) Growth Assay: The same method in Example 5 was used. However, the cells studied were normal human mammary cells and breast cancer cells, MCF-7."}, "[2]": {"tested_on": "normal human mammary cells", "test": "Side-by-side growth assay versus cisplatin, normal human mammary cells, Example 6", "format": "cell-based", "settings": "for cell count, normal human mammary cells: untreated 1.00 × 10^5; for % inhibition: normal human mammary cells", "protocol": "as §1, §2, §3, §4"}, "[3]": {"tested_on": "human breast cancer cells MCF-7", "test": "In-vitro growth assay (cell count after 6 days), MCF-7, Example 5", "format": "cell-based", "settings": "37° C.; for MCF-7 cell count / % inhibition: 6 days; for MCF-7 cell count: untreated 6.70 × 10^5", "protocol": "(§5) In-vitro inhibition of cancer cells by cis-[(NH3)2 PtCl(Guanosine)]Cl (performed by Biotherapies Incorporated, Ann Arbor, Mich.)\nas §1"}, "[4]": {"tested_on": "human breast cancer cells MDA-MB-231", "test": "In-vitro growth assay (cell count after 6 days), MDA-MB-231, Example 5", "format": "cell-based", "settings": "37° C.; for MDA cell count / % inhibition: 6 days; for MDA cell count: untreated 4.00 × 10^5", "protocol": "as §5, §1"}, "[5]": {"settings": "0.012 mg/mL (4.00 × 10^-5 mmole/mL)"}, "[6]": {"settings": "cisplatin 0.025 mg/mL (8.33 × 10^-5 mmole/mL)"}, "[7]": {"settings": "0.00025 mg/mL (4.29 × 10^-7 mmole/mL)"}, "[8]": {"settings": "0.0025 mg/mL (4.29 × 10^-6 mmole/mL)"}, "[9]": {"settings": "0.025 mg/mL (4.29 × 10^-5 mmole/mL)"}, "[10]": {"settings": "0.05 mg/mL (8.57 × 10^-5 mmole/mL)"}, "[11]": {"settings": "#95001 0.025 mg/mL (4.29 × 10^-5 mmole/mL)"}}, "data": [{"molecule": "N.N.[Cl][Pt][Cl]", "note": "[cisplatin, cis-diamminedichloroplatinum]", "values": [{"measurement": "MCF-7 cell count", "setting": "[1]; [5]", "result": "5.00 × 10^3"}, {"measurement": "% inhibition", "setting": "[1]; MCF-7, 0.012 mg/mL (4.00 × 10^-5 mmole/mL)", "result": 99.8, "unit": "%"}, {"measurement": "% inhibition", "setting": "[1]; MCF-7, cisplatin 0.025 mg/mL (8.33 × 10^-5 mmole/mL)", "result": 99.9, "unit": "%"}, {"measurement": "MCF-7 cell count", "setting": "[1]; [6]", "result": "5.00 × 10^3"}, {"measurement": "cell count, normal human mammary cells", "setting": "[2]; [5]", "result": "1.00 × 10^4"}, {"measurement": "cell count, normal human mammary cells", "setting": "[2]; [6]", "result": "3.30 × 10^3"}, {"measurement": "% inhibition", "setting": "[2]; [5]", "result": 90.0, "unit": "%"}, {"measurement": "% inhibition", "setting": "[2]; [6]", "result": 99.0, "unit": "%"}]}, {"molecule": "cis-diamminechloroguanosineplatinum chloride [cis-[Pt(NH3)2 Cl(Guanosine)]Cl]", "values": [{"measurement": "MCF-7 cell count", "setting": "[3]; [7]", "result": "6.10 × 10^5"}, {"measurement": "MCF-7 cell count", "setting": "[3]; [8]", "result": "5.00 × 10^4"}, {"measurement": "MCF-7 cell count", "setting": "[3]; [9]", "result": "1.00 × 10^4"}, {"measurement": "% inhibition", "setting": "[3]; MCF-7, 0.00025 mg/mL (4.29 × 10^-7 mmole/mL)", "result": 9.0, "unit": "%"}, {"measurement": "% inhibition", "setting": "[3]; MCF-7, 0.0025 mg/mL (4.29 × 10^-6 mmole/mL)", "result": 92.5, "unit": "%"}, {"measurement": "% inhibition", "setting": "[3]; MCF-7, 0.025 mg/mL (4.29 × 10^-5 mmole/mL)", "result": 98.5, "unit": "%"}, {"measurement": "inhibition of cell growth (in words)", "setting": "[3]; MCF-7, 6 days", "result": "able to inhibit the cell growth"}, {"measurement": "MDA cell count", "setting": "[4]; [7]", "result": "3.55 × 10^5"}, {"measurement": "MDA cell count", "setting": "[4]; [8]", "result": "5.00 × 10^4"}, {"measurement": "MDA cell count", "setting": "[4]; [9]", "result": "1.00 × 10^4"}, {"measurement": "% inhibition", "setting": "[4]; MDA-MB-231, 0.00025 mg/mL (4.29 × 10^-7 mmole/mL)", "result": 11.3, "unit": "%"}, {"measurement": "% inhibition", "setting": "[4]; MDA-MB-231, 0.0025 mg/mL (4.29 × 10^-6 mmole/mL)", "result": 87.5, "unit": "%"}, {"measurement": "% inhibition", "setting": "[4]; MDA-MB-231, 0.025 mg/mL (4.29 × 10^-5 mmole/mL)", "result": 97.5, "unit": "%"}, {"measurement": "inhibition of cell growth (in words)", "setting": "[4]; MDA-MB-231, 6 days", "result": "able to inhibit the cell growth"}, {"measurement": "MCF-7 cell count", "setting": "[1]; [10]", "result": "6.70 × 10^3"}, {"measurement": "MCF-7 cell count", "setting": "[1]; [11]", "result": "3.30 × 10^3"}, {"measurement": "% inhibition", "setting": "[1]; MCF-7, 0.05 mg/mL (8.57 × 10^-5 mmole/mL)", "result": 99.8, "unit": "%"}, {"measurement": "% inhibition", "setting": "[1]; MCF-7, #95001 0.025 mg/mL (4.29 × 10^-5 mmole/mL)", "result": 97.6, "unit": "%"}, {"measurement": "effectiveness in killing MCF-7 cells versus cisplatin (in words)", "setting": "[1]; ca. 8×10-5 mmole/mL", "result": "as effective as cisplatin in killing MCF-7 cells"}, {"measurement": "cell count, normal human mammary cells", "setting": "[2]; [10]", "result": "4.50 × 10^4"}, {"measurement": "cell count, normal human mammary cells", "setting": "[2]; [11]", "result": "9.30 × 10^4"}, {"measurement": "toxicity to normal human mammary cells versus cisplatin (in words)", "setting": "[2]; ca. 8×10-5 mmole/mL", "result": "lower than cisplatin"}, {"measurement": "% inhibition", "setting": "[2]; [10]", "result": 55.0, "unit": "%"}, {"measurement": "% inhibition", "setting": "[2]; [11]", "result": 7.0, "unit": "%"}]}]}
